Experimental data from ChEMBL document CHEMBL3784917, “Recent Progress in Histone Demethylase Inhibitors” (J Med Chem, 2016).
One block for each compound: values may come before it.

How the values were obtained:
[1] = biological target: T1, Lysine-specific demethylase 3A (Homo sapiens, UniProt Q9Y4C1); test: Inhibition of recombinant human N-terminal FLAG-tagged KDM3A (2 to 1322 residues) expressed in baculovirus infected sf9 cells using biotin-H3K9me as substrate preincubated for 10 mins followed by substrate addition measured after 10 mins by AlphaLisa assay
T1 sequence (Q9Y4C1 whole entry): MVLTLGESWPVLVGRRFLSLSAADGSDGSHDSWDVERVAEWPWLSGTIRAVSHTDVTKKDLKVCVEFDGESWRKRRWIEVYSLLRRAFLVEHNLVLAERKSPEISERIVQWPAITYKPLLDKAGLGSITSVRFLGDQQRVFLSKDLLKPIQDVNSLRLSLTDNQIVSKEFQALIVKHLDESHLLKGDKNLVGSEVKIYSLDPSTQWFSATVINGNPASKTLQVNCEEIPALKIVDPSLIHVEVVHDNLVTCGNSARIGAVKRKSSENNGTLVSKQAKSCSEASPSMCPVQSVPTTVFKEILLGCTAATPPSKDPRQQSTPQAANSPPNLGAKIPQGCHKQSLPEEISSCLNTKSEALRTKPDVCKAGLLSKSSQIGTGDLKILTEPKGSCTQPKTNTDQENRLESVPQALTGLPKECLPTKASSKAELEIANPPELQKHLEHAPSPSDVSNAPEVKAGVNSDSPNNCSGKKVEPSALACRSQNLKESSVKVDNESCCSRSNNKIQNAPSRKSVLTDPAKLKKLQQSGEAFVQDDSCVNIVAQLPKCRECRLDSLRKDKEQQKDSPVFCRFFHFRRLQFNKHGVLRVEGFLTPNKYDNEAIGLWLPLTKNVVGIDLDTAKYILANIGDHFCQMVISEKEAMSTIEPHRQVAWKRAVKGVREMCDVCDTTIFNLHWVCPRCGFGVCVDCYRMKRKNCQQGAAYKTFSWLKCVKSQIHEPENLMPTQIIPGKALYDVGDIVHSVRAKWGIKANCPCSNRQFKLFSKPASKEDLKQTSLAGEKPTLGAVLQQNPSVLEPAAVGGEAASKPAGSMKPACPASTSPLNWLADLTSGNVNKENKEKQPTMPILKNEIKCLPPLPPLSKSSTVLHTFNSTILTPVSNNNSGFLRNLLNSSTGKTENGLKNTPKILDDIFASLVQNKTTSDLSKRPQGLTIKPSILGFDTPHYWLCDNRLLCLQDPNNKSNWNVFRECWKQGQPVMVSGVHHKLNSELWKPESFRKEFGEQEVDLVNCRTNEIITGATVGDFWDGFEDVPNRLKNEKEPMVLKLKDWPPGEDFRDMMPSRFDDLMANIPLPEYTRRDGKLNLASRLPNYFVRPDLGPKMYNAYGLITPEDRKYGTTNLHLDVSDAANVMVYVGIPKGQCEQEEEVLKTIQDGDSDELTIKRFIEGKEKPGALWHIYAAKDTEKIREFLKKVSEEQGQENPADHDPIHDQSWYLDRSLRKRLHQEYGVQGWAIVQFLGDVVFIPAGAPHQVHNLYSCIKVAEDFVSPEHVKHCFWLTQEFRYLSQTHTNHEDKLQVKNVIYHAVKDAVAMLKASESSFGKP

[2] = biological target: T2, Lysine-specific demethylase 4A (Homo sapiens, UniProt O75164); test: Inhibition of KDM4A in human MCF7 cells assessed as increase in H3K9me3 level after 24 hrs by DAPI staining based immunofuorescence assay; assay type: cell-based
T2 sequence (O75164 whole entry): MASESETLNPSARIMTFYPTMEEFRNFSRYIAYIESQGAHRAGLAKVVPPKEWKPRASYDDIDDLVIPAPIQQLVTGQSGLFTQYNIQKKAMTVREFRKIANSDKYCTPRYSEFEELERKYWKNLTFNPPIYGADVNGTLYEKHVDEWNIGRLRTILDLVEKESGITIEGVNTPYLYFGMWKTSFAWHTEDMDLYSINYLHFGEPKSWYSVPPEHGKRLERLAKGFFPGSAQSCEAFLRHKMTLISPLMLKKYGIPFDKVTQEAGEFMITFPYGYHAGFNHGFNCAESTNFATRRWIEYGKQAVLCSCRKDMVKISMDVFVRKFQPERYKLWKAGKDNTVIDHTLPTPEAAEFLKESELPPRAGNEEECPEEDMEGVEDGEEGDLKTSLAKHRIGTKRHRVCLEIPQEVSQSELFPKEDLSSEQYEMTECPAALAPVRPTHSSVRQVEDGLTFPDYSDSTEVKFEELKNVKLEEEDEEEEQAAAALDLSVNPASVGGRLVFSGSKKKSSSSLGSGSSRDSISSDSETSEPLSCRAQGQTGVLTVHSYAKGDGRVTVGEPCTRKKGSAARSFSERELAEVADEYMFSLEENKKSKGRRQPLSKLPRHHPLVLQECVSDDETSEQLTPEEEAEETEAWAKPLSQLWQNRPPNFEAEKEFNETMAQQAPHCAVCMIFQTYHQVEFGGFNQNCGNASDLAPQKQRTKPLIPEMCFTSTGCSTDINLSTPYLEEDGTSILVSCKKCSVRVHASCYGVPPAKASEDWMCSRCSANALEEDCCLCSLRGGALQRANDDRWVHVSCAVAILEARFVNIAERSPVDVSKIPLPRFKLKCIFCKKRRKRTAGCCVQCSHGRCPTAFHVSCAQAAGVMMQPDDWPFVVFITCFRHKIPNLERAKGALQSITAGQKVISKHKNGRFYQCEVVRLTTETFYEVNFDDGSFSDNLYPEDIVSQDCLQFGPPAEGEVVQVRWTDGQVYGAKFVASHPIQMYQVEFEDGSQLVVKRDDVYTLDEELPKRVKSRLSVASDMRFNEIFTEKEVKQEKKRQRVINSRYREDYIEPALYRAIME

[3] = biological target: T2, Lysine-specific demethylase 4A; test: Inhibition of full-length FLAG-tagged KDM4A (unknown origin) expressed in human HeLa cells assessed as increase in H3K9me3 level after 24 hrs by DAPI staining based immunofuorescence assay; assay type: cell-based
[4] = Inhibition of FIH (unknown origin) using ankyrin peptide substrate preincubated for 5 mins followed by substrate addition measured after 5 mins MALDI-TOF mass spectrometric analysis; parameters: species or system Homo sapiens
Egl nine homolog 1 = Egl nine homolog 1 (Homo sapiens, UniProt Q9GZT9); test: Inhibition of PHD2 (unknown origin) preincubated for 15 mins followed by histone substrate addition measured after 1 hr by alphascreen assay
Sequence of Egl nine homolog 1 (Q9GZT9 whole entry): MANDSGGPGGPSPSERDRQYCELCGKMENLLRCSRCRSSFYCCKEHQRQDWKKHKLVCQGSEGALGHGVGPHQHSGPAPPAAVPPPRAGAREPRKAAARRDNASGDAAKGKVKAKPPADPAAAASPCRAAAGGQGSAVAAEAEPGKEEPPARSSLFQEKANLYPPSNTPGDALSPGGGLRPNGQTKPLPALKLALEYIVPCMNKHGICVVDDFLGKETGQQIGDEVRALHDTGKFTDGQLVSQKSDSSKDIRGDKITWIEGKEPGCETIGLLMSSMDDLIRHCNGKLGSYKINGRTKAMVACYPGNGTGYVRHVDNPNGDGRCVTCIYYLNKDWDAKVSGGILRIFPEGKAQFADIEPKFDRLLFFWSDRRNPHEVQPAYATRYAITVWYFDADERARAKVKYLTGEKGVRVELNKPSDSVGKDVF

[5] = biological target: T1, Lysine-specific demethylase 3A; test: Inhibition of KDM3A (unknown origin) preincubated for 15 mins followed by histone substrate addition measured after 1 hr by alphascreen assay
MCF7 = test: Antiproliferative activity against human MCF7 cells assessed as reduction in cell viability after 120 hrs by ATPlite assay; assay type: functional, cell-based; conditions: MCF7, 120 h
[6] = Antiproliferative activity against human BT474 cells assessed as reduction in cell viability after 120 hrs by ATPlite assay; assay type: functional, cell-based; conditions: BT-474, 120 h
[7] = biological target: T2, Lysine-specific demethylase 4A
[8] = biological target: T1, Lysine-specific demethylase 3A; test: Inhibition of KDM3A (unknown origin) after 24 hrs by alphascreen assay
[9] = biological target: Lysine-specific demethylase 5C (Homo sapiens, UniProt P41229)
Sequence of Lysine-specific demethylase 5C (P41229 whole entry): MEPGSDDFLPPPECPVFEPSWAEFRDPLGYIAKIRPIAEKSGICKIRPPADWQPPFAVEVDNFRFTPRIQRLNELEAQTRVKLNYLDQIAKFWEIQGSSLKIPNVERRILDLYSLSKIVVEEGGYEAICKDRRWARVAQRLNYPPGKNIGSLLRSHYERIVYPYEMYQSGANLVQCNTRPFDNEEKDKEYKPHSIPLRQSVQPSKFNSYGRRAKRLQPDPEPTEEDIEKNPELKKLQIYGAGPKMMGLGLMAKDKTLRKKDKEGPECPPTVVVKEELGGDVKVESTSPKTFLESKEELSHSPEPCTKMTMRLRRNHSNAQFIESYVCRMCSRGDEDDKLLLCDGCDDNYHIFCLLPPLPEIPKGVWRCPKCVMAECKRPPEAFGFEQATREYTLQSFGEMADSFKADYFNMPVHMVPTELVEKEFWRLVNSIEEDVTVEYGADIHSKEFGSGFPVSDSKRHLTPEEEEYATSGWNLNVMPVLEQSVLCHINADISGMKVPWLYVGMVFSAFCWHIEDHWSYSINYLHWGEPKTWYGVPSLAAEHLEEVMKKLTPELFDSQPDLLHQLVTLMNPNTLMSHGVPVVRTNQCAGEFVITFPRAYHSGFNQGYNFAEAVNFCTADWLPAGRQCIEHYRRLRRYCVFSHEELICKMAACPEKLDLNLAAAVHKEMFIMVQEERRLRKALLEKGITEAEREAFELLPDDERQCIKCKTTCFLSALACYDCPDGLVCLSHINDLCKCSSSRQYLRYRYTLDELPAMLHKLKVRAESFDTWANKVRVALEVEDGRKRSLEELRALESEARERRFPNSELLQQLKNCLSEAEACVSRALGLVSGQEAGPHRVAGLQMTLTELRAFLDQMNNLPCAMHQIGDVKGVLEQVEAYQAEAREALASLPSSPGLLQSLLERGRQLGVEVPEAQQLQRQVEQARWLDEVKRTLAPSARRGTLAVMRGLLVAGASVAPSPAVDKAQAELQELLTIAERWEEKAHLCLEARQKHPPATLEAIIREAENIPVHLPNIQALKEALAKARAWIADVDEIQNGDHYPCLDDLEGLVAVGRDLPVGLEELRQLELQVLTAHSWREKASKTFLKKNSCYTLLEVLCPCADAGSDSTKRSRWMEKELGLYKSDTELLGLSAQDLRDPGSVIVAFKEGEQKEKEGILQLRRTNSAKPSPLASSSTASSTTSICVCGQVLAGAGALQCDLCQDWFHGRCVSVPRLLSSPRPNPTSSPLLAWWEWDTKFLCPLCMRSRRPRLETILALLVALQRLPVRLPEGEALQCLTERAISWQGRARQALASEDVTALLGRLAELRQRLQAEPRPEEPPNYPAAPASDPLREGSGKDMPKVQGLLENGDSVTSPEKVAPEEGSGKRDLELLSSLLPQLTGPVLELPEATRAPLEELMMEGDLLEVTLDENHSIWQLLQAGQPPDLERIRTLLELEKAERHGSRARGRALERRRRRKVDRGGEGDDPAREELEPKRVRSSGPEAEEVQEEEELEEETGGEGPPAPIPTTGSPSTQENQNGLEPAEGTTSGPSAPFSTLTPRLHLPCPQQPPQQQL

- IC50 [1]: > 2.5 µM
Structure (SMILES): CCN(CCN(C)C)C(=O)CNCc1cc(CNC(=O)C(F)(F)F)ccn1

- EC50 [2]: 12 µM
- EC50 [3]: 9 µM
- IC50 [4]: > 100 µM
- IC50 (Egl nine homolog 1): 96 µM
- IC50 [5]: 191 µM
Structure (SMILES): Cc1ccsc1C(NC(=O)c1ccccc1)c1cc(Cl)c2cccnc2c1O (racemic)

- EC50 (MCF7): < 0.25 µM
- IC50 [1]: > 2.5 µM
Structure (SMILES): CCN(CC)CCCCNCc1cc(C=O)ccn1
- EC50 [6]: < 0.25 µM

- EC50 [7]: 3.8 µM
- IC50 [8]: > 100 µM
Structure (SMILES): CCCCCCCCOC(=O)c1ccc(O)c2ncccc12

- IC50 (MCF7): 1 µM
- IC50 [9]: 1 µM
Structure (SMILES): CCN(CCN(C)C)C(=O)CNCc1cc(C(=O)O)ccn1
